What all share (format): functional
The species entered for test [1] is Rattus norvegicus. Put plainly: Effect on colon small bowel tumorigenesis in rats fed with cholesterol and cholic acid diet(Group 2 diet).
For test [2], the species on record is Rattus norvegicus. Put plainly: Effect on colon large bowel tumorigenesis in rats fed with safflower oil diet(Group 1 diet).
For test [3], the species on record is Rattus norvegicus. Put plainly: Average number of tumors per rat in colon large bowel tumorigenesis in rats fed with cholesterol and cholic acid diet(Group 2 diet).
Test [4] is filed under the species Rattus norvegicus. Nature of the test: Effect on colon small bowel tumorigenesis in rats fed with safflower oil diet(Group 1 diet).
The species named for test [5] is Rattus norvegicus. Put plainly: Average number of tumors per rat in colon small bowel tumorigenesis in rats fed with safflower oil diet(Group 1 diet).
The species named for test [6] is Rattus norvegicus. Put plainly: Average number of tumors per rat in colon small bowel tumorigenesis in rats fed with cholesterol and cholic acid diet(Group 2 diet).
For test [7], the species on record is Rattus norvegicus. Put plainly: Effect on colon large bowel tumorigenesis in rats fed with cholesterol and cholic acid diet(Group 2 diet).
The species entered for test [8] is Rattus norvegicus. Nature of the test: Average number of tumors per rat in colon large bowel tumorigenesis in rats fed with safflower oil diet(Group 1 diet).

With `NC[C@@H]1O[C@H](O[C@H]2[C@@H](O)[C@H](O[C@@H]3[C@@H](O)[C@H](N)C[C@H](N)[C@H]3O[C@H]3O[C@H](CN)[C@@H](O)[C@H](O)[C@H]3N)O[C@@H]2CO)[C@H](N)[C@@H](O)[C@@H]1O` [FRAMYCETIN], the Incidence turned out to be 25% in the test listed under Rattus norvegicus [1], 98% in the test listed under Rattus norvegicus [2], 22% in the test listed under Rattus norvegicus [4] and 80% in the test filed under Rattus norvegicus [7]. Also, the No. of tumors in the test filed under Rattus norvegicus [3] amounted to 1.13; in the test listed under Rattus norvegicus [5], 0.5; in the test filed under Rattus norvegicus [6] it was 0.5; in the test filed under Rattus norvegicus [8] it was 3.

The record behind these values is ChEMBL document CHEMBL1132093, “Fecal excretion pattern of bile acids in rats fed high fat diets and neomycin in induced colon tumorigenesis” (1999).
